Like-named read-outs stand apart in the source and are kept apart here.
Columns and labels:
[1] = system: K562 cells; assay: MTT anti-proliferative assay, K562; type: cell-based; settings: Homo sapiens, read-out: IC50 ± SD, K562
Protocol: (§1) The antiproliferative activity of the target indazole derivatives was evaluated against a panel of human cancer cell lines (human chronic myeloid leukemia cell lines K562; human lung cancer cell lines A549; human prostate cancer cell lines PC-3; human hepatoma cell lines HepG-2) in vitro, and human embryonic kidney cell lines HEK-293 were used to evaluate the cytotoxicity of a normal cell with high activity derivatives by MTT assay. Moreover, 5-fluorouracil (5-Fu), a broad-spectrum drug antitumor drug with therapeutic effects on various cancers, was used as a positive control.
(§2) Lung (A549), chronic myeloid leukemia (K562), prostate (PC3), and live (Hep-G2) cells were purchased from the Cell Bank of the Chinese Academy of Sciences (Kunming, China). A549, K562, and PC-3 cells were cultured in RPMI-1640 medium and the liver cells Hep-G2 were cultured in MEM medium. All mediums were supplemented with 10% FBS, 100 μg/mL penicillin and 100 μg/mL streptomycin. All cells were cultivated in a 5% CO2 incubator at 37 °C.
(§3) To investigate the anticancer activity of indazole derivatives, A549, K562, PC3, and Hep-G2 cells were treated with targets compounds respectively for 48 h in a range of concentrations (from 0.625 to 10 μM) and subjected to a proliferation assay using the MTT assay. Exponentially growing cells were seeded at a density of 5000 cells per well in 96-well plates containing 100 μL of fresh growth medium. After allowing the cells to attach for 24 h, target compounds were added. After incubation for 48 h, viable cells were stained with MTT (0.5 mg/mL) for 4 h, and the produced formazan crystals were dissolved with 150 µL of dimethyl sulfoxide. Absorbance was measured at 490 nm using an automated microplate reader (Tecan, Infinite M200 Pro, Männedorf, Switzerland). The relative cell viability was calculated according to the following equation: Cell viability%=experimental OD value/control OD value×100%Cell inhibition%=control OD value−experimental OD value/control OD value×100%
(§4) Cell inhibition%=control OD value−experimental OD value/control OD value×100%

[2] = system: A549 cells; assay: MTT anti-proliferative assay, A549; type: cell-based; settings: Homo sapiens, read-out: IC50 ± SD, A549
Protocol: as §1, §2, §3, §4

[3] = system: PC-3 cells; assay: MTT anti-proliferative assay, PC-3; type: cell-based; settings: Homo sapiens, PC-3, 48 h
Protocol: as §1, §2
as §3, with “Exponentially” for “To investigate the anticancer activity of indazole derivatives, A549, K562, PC3, and Hep-G2 cells were treated with targets compounds respectively for 48 h in a range of concentrations (from 0.625 to 10 μM) and subjected to a proliferation assay using the MTT assay. Exponentially”
as §4

[4] = system: Hep-G2 cells; assay: MTT anti-proliferative assay, Hep-G2; type: cell-based; settings: Homo sapiens, HepG2, 48 h, read-out: IC50 ± SD, Hep-G2
Protocol: as §1, §2, §3, §4

[5] = Table 1, read-out: IC50 ± SD, PC-3
[6] = Table 2, read-out: IC50 ± SD, PC-3

Row | IC50 ([1]; Table 1, 48 h) [µM] | IC50 ([2]; Table 1, 48 h) [µM] | IC50 [3, 5] [µM] | IC50 ([4]; Table 1, 48 h) [µM] | melting point [°C] | IC50 ([1]; Table 2, 48 h) [µM] | IC50 ([2]; Table 2, 48 h) [µM] | IC50 [3, 6] [µM] | IC50 ([4]; Table 2, 48 h) [µM] | Structure (SMILES)
1 | 6.97 ± 0.99 | 5.25 ± 0.57 | 38.4 ± 24.1 | > 50 |  |  |  |  |  | O=C(CSc1ccc(F)cc1)Nc1n[nH]c2ccc(-c3cccc(F)c3)cc12 [5b]
2 | 9.33 ± 0.64 | 5.63 ± 0.59 | 60.7 ± 2.91 | 4.76 ± 0.63 |  |  |  |  |  | O=C(CSc1ccc(Br)cc1)Nc1n[nH]c2ccc(-c3cccc(F)c3)cc12 [5c]
3 | 27.2 ± 0.66 | 16.6 ± 3.22 | 19.7 ± 2.38 | 45.9 ± 2.24 |  |  |  |  |  | O=C(CSc1ccccc1Br)Nc1n[nH]c2ccc(-c3cccc(F)c3)cc12 [5d]
4 | > 50 | 7.23 ± 0.4 | 12.8 ± 3.09 | 8.2 ± 0.91 |  |  |  |  |  | COc1ccc(SCC(=O)Nc2n[nH]c3ccc(-c4ccc(F)cc4)cc23)cc1 [5e]
5 | > 50 | 4.48 ± 0.24 | 12.5 ± 4.55 | > 50 | 215 to 216 |  |  |  |  | COc1ccc(SCC(=O)Nc2n[nH]c3ccc(-c4ccc(OC(F)(F)F)cc4)cc23)cc1 [5f]
6 | 10.3 ± 1.14 | 6.4 ± 0.26 | 18.6 ± 5.73 | 11.9 ± 0.72 | 178 to 200 |  |  |  |  | O=C(CSc1ccc(F)cc1)Nc1n[nH]c2ccc(-c3ccc(Cl)c(F)c3)cc12 [5g]
7 | 14.3 ± 2.13 | 9.26 ± 0.37 | 13 ± 7.53 | 11.3 ± 0.75 | 267 to 268 |  |  |  |  | O=C(CSc1ccc(Br)cc1)Nc1n[nH]c2ccc(-c3ccc(Cl)c(F)c3)cc12 [5h]
8 | 6.27 ± 1.22 | 4.43 ± 0.15 | 6.57 ± 1.1 | 5.5 ± 0.17 | 243 to 246 |  |  |  |  | O=C(CSc1ccc([N+](=O)[O-])cc1)Nc1n[nH]c2ccc(-c3ccc(Cl)c(F)c3)cc12 [5i]
9 | 8.49 ± 1.87 | 3.99 ± 0.16 | 14.7 ± 4.55 | 5.36 ± 0.25 | 204 to 205 |  |  |  |  | COc1ccc(SCC(=O)Nc2n[nH]c3ccc(-c4cc(F)cc(F)c4)cc23)cc1 [5j]
10 | 8.19 ± 1.43 | 14.1 ± 1.71 | > 50 | 14.9 ± 0.77 | 199 to 200 |  |  |  |  | O=C(CSc1ccccc1Br)Nc1n[nH]c2ccc(-c3cc(F)cc(F)c3)cc12 [5l]
11 | 13.1 ± 0.46 | 20.2 ± 3.14 | > 50 | 35.6 ± 4.21 | 200 to 202 |  |  |  |  | O=C(CSc1ccc(Cl)cc1)Nc1n[nH]c2ccc(-c3cc(F)cc(F)c3)cc12 [5m]
12 | 7.25 ± 1.07 | 20 ± 1.19 | > 50 | 6.57 ± 0.13 | 193 to 194 |  |  |  |  | O=C(CSc1cccc(Cl)c1)Nc1n[nH]c2ccc(-c3cc(F)cc(F)c3)cc12 [5n]
13 | 8.09 ± 1.27 | 6.64 ± 0.47 | 12.5 ± 2.1 | 8.3 ± 0.56 |  |  |  |  |  | O=C(CSc1ccc([N+](=O)[O-])cc1)Nc1n[nH]c2ccc(-c3cc(F)cc(F)c3)cc12 [5o]
14 | 15.42 ± 0.15 | 16 ± 0.37 | 22.5 ± 9.13 | 7.14 ± 0.33 |  |  |  |  |  | O=C(CSc1ccncc1)Nc1n[nH]c2ccc(-c3cc(F)cc(F)c3)cc12 [5p]
15 | 14.3 ± 2.13 | 16.2 ± 1.46 | 7.81 ± 0.64 | 6.3 ± 0.03 |  |  |  |  |  | O=C(CSc1ncccn1)Nc1n[nH]c2ccc(-c3cc(F)cc(F)c3)cc12 [5q]
16 |  |  |  |  | 200 to 201 | 18.6 ± 2.14 | 19.9 ± 1.15 | 9.69 ± 0.26 | 1.69 ± 0.68 | COc1ccc(-c2ccc3[nH]nc(NC(=O)CN4CCN(c5ccc(Cl)c(Cl)c5)CC4)c3c2)cc1 [6b]
17 |  |  |  |  | 188 to 189 | > 50 | 24 ± 2.92 | > 50 | 1.23 ± 0.39 | COc1ccc(-c2ccc3[nH]nc(NC(=O)CN4CCN(c5ccc(OC)cc5)CC4)c3c2)cc1 [6c]
18 |  |  |  |  | 187 to 189 | 18.2 ± 2.91 | 17.6 ± 4.11 | 17.6 ± 1.4 | > 50 | COc1ccc(-c2ccc3[nH]nc(NC(=O)CN4CCN(c5ccc(C(F)(F)F)cc5)CC4)c3c2)cc1 [6d]

Row | IC50 ([1]; Table 1, 48 h) [µM] | IC50 ([2]; Table 1, 48 h) [µM] | IC50 [3, 5] [µM] | IC50 ([4]; Table 1, 48 h) [µM] | melting point [°C] | IC50 ([1]; Table 2, 48 h) [µM] | IC50 ([2]; Table 2, 48 h) [µM] | IC50 [3, 6] [µM] | IC50 ([4]; Table 2, 48 h) [µM] | Structure (SMILES)
19 |  |  |  |  | 140 to 141 | 8.85 ± 0.26 | 12.8 ± 0.78 | 7.15 ± 0.14 | > 50 | COc1ccc(-c2ccc3[nH]nc(NC(=O)CN4CCN(Cc5ccc(Cl)cc5)CC4)c3c2)cc1 [6e]
20 |  |  |  |  |  | 11.9 ± 0.85 | > 50 | 41.7 ± 27.9 | 9.56 ± 0.84 | O=C(CN1CCN(c2ccc(Cl)c(Cl)c2)CC1)Nc1n[nH]c2ccc(-c3cc(F)cc(F)c3)cc12 [6f]
21 |  |  |  |  | 170 to 171 | 6.61 ± 0.38 | 15.8 ± 2.98 | 6.81 ± 1.09 | 2.35 ± 0.96 | O=C(CN1CCN(c2ccc(C(F)(F)F)cc2)CC1)Nc1n[nH]c2ccc(-c3cc(F)cc(F)c3)cc12 [6g]
22 |  |  |  |  |  | 13.2 ± 1.75 | 15.1 ± 1.36 | 8.63 ± 0.57 | 2.75 ± 0.78 | O=C(CN1CCN(c2ccc(F)cc2F)CC1)Nc1n[nH]c2ccc(-c3cc(F)cc(F)c3)cc12 [6h]
23 |  |  |  |  | 184 to 186 | 13.2 ± 1.44 | 28.6 ± 2.52 | 12.8 ± 2.95 | 2.58 ± 0.42 | O=C(CN1CCN(c2ccc(Br)cc2)CC1)Nc1n[nH]c2ccc(-c3cc(F)cc(F)c3)cc12 [6i]
24 |  |  |  |  | 179 to 181 | 7.78 ± 0.1 | 20.3 ± 1.24 | 7.58 ± 1.01 | 3.87 ± 0.47 | O=C(CN1CCN(c2ccc(Cl)cc2)CC1)Nc1n[nH]c2ccc(-c3cc(F)cc(F)c3)cc12 [6j]
25 |  |  |  |  | 180 to 182 | 11.2 ± 0.56 | 7.83 ± 1.06 | 4.25 ± 0.13 | 1.61 ± 0.28 | O=C(CN1CCN(c2ccccc2)CC1)Nc1n[nH]c2ccc(-c3cc(F)cc(F)c3)cc12 [6k]
26 |  |  |  |  | 200 to 201 | 14 ± 0.49 | 12.9 ± 0.21 | 2.89 ± 0.16 | 7.65 ± 3.34 | O=C(CN1CCN(c2ccncc2)CC1)Nc1n[nH]c2ccc(-c3cc(F)cc(F)c3)cc12 [6l]
27 |  |  |  |  |  | 17.9 ± 3.14 | 22.6 ± 6.53 | 19.9 ± 2.71 | 1.51 ± 0.25 | O=C(CN1CCN(c2ccc(Cl)c(Cl)c2)CC1)Nc1n[nH]c2ccc(-c3ccc(Cl)c(F)c3)cc12 [6m]
28 |  |  |  |  | 174 to 176 | 13.3 ± 1.4 | 18.7 ± 3.1 | 34.8 ± 4.37 | 4.76 ± 0.63 | COc1ccc(N2CCN(CC(=O)Nc3n[nH]c4ccc(-c5ccc(Cl)c(F)c5)cc34)CC2)cc1 [6n]
29 |  |  |  |  | 163 to 165 | > 50 | 13.6 ± 0.53 | 32.1 ± 2.26 | 2.38 ± 0.37 | O=C(CN1CCN(c2ccccc2Cl)CC1)Nc1n[nH]c2ccc(-c3ccc(Cl)c(F)c3)cc12 [6p]
30 |  |  |  |  | 160 to 162 | 5.61 ± 1.14 | 12.8 ± 2.66 | 10.7 ± 1.66 | 2.7 ± 0.47 | O=C(CN1CCN(c2ccc(F)cc2F)CC1)Nc1n[nH]c2ccc(-c3ccc(Cl)c(Cl)c3)cc12 [6q]
31 |  |  |  |  |  | 10 ± 0.94 | 15.8 ± 1.38 | 27.9 ± 26.1 | > 50 | O=C(CN1CCN(c2ccc(Br)cc2)CC1)Nc1n[nH]c2ccc(-c3ccc(Cl)c(Cl)c3)cc12 [6r]
32 |  |  |  |  | 179 to 182 | 10.8 ± 0.68 | 20.4 ± 8.08 | 20.3 ± 4.71 | 2.92 ± 1.41 | O=C(CN1CCN(c2ccc(Cl)cc2)CC1)Nc1n[nH]c2ccc(-c3ccc(Cl)c(Cl)c3)cc12 [6s]
33 |  |  |  |  | 194 to 197 | 11.1 ± 0.69 | 40.9 ± 6.54 | 19 ± 0.58 | 1.98 ± 0.35 | N#Cc1ccc(N2CCN(CC(=O)Nc3n[nH]c4ccc(-c5ccc(Cl)c(Cl)c5)cc34)CC2)cc1 [6t]
34 | 9.32 ± 0.59 | 4.66 ± 0.45 | 15.5 ± 1.33 | 12.7 ± 1.31 |  |  |  |  |  | COc1ccc(SCC(=O)Nc2n[nH]c3ccc(-c4cccc(F)c4)cc23)cc1 [compound 5a]
35 |  |  |  |  |  | 5.19 ± 0.29 | 8.21 ± 0.56 | 6.12 ± 0.1 | 5.62 ± 1.76 | O=C(CN1CCN(c2ccc(Cl)c(Cl)c2)CC1)Nc1n[nH]c2ccc(-c3cccc(F)c3)cc12 [compound 6a]

Reference: paper PMC10218234, “Design, Synthesis and Antitumor Activity of 1H-indazole-3-amine Derivatives” (International Journal of Molecular Sciences, 2023)
